Reference: ChEMBL document CHEMBL3132769, “Fragment growing to retain or alter the selectivity of anchored kinase hinge-binding fragments” (Medchemcomm, 2014)

Experiments:
[1] = target: Tyrosine-protein kinase ABL1 (Homo sapiens) (UniProt P00519); experiment: Inhibition of human full-length ABL expressed in baculovirus assessed as substrate phosphorylation using fluorescence-labelled peptides as substrate at 0.06 uM after 90 mins by microfluidic peptide phosphorylation assay
[2] = target: Tyrosine-protein kinase Fer (Homo sapiens) (UniProt P16591); experiment: Inhibition of human FER catalytic domain expressed in baculovirus assessed as substrate phosphorylation using fluorescence-labelled peptides as substrate at 0.06 uM after 90 mins by microfluidic peptide phosphorylation assay
[3] = target: Ribosomal protein S6 kinase alpha-2 (Homo sapiens) (UniProt Q15349); experiment: Inhibition of human full length RSK3 expressed in baculovirus assessed as substrate phosphorylation using fluorescence-labelled peptides as substrate at 420 uM after 90 mins by microfluidic peptide phosphorylation assay
[4] = target: Protein kinase C delta type (Homo sapiens) (UniProt Q05655); experiment: Inhibition of human truncated PKC delta expressed in baculovirus assessed as substrate phosphorylation using fluorescence-labelled peptides as substrate at 0.2 uM after 90 mins by microfluidic peptide phosphorylation assay
[5] = test system: Tyrosine-protein kinase ABL1 (Homo sapiens), P00519 [T315I]; experiment: Inhibition of human truncated ABL T315I mutant expressed in baculovirus assessed as substrate phosphorylation using fluorescence-labelled peptides as substrate at 0.2 uM after 90 mins by microfluidic peptide phosphorylation assay
[6] = target: Platelet-derived growth factor receptor alpha (Homo sapiens) (UniProt P16234); experiment: Inhibition of human PDGFR alpha catalytic domain expressed in baculovirus assessed as substrate phosphorylation using fluorescence-labelled peptides as substrate at 0.1 uM after 90 mins by microfluidic peptide phosphorylation assay
[7] = test system: Tyrosine-protein kinase ABL1 (Homo sapiens), P00519 [Q252H]; experiment: Inhibition of human truncated ABL Q252H mutant expressed in baculovirus assessed as substrate phosphorylation using fluorescence-labelled peptides as substrate at 0.1 uM after 90 mins by microfluidic peptide phosphorylation assay
[8] = test system: T1, Receptor-type tyrosine-protein kinase FLT3 (Homo sapiens), P36888 [D835Y]; experiment: Inhibition of human FLT3 D835Y mutant catalytic domain expressed in baculovirus assessed as substrate phosphorylation using fluorescence-labelled peptides as substrate at 70 uM after 90 mins by microfluidic peptide phosphorylation assay
T1 sequence (whole entry): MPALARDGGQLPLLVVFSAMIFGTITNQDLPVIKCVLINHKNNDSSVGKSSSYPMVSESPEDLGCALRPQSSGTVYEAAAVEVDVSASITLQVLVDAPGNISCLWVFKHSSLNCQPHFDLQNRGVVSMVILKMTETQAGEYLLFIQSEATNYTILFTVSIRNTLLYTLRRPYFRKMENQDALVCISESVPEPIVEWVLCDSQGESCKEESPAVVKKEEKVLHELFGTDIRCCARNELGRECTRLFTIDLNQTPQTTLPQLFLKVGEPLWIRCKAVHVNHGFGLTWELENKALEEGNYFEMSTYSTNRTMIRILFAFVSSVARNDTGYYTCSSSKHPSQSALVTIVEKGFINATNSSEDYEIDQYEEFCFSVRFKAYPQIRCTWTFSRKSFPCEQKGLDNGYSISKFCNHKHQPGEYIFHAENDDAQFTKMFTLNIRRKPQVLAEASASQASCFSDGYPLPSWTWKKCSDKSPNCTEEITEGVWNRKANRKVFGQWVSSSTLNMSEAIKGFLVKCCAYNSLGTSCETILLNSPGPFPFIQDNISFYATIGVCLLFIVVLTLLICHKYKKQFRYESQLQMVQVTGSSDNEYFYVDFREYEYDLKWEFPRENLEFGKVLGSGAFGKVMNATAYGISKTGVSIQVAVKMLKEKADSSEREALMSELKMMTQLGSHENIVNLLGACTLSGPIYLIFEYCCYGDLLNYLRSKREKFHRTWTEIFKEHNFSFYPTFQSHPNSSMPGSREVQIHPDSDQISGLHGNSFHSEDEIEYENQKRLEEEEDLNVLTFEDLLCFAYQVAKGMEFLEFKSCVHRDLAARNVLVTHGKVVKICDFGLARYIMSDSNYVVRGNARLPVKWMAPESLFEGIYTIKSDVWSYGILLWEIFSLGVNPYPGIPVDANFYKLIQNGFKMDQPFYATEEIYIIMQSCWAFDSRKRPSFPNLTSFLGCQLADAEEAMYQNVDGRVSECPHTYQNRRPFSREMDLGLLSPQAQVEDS

[9] = target: Ribosomal protein S6 kinase alpha-2 (Homo sapiens) (UniProt Q15349); experiment: Inhibition of human full length RSK3 expressed in baculovirus assessed as substrate phosphorylation using fluorescence-labelled peptides as substrate at 70 uM after 90 mins by microfluidic peptide phosphorylation assay
[10] = target: Protein kinase C theta type (Homo sapiens) (UniProt Q04759); experiment: Inhibition of human truncated PKC theta expressed in baculovirus assessed as substrate phosphorylation using fluorescence-labelled peptides as substrate at 95 uM after 90 mins by microfluidic peptide phosphorylation assay
[11] = target: Mitogen-activated protein kinase 3 (Homo sapiens) (UniProt P27361); experiment: Inhibition of human full length ERK1 expressed in Escherichia coli cell assessed as substrate phosphorylation using fluorescence-labelled peptides as substrate at 95 uM after 90 mins by microfluidic peptide phosphorylation assay
[12] = target: Platelet-derived growth factor receptor alpha (Homo sapiens) (UniProt P16234); experiment: Inhibition of human PDGFR alpha catalytic domain expressed in baculovirus assessed as substrate phosphorylation using fluorescence-labelled peptides as substrate at 95 uM after 90 mins by microfluidic peptide phosphorylation assay
[13] = target: Dual specificity tyrosine-phosphorylation-regulated kinase 1A (Rattus norvegicus) (UniProt Q63470); experiment: Inhibition of rat full length DYRK1a expressed in Escherichia coli cell assessed as substrate phosphorylation using fluorescence-labelled peptides as substrate at 8 uM after 90 mins by microfluidic peptide phosphorylation assay
[14] = target: RAC-alpha serine/threonine-protein kinase (Homo sapiens) (UniProt P31749); experiment: Inhibition of human AKT1 catalytic domain expressed in baculovirus assessed as substrate phosphorylation using fluorescence-labelled peptides as substrate at 2 uM after 90 mins by microfluidic peptide phosphorylation assay
RAC-alpha serine/threonine-protein kinase (Homo sapiens), sequence (P31749 whole entry, the tested form may be a part): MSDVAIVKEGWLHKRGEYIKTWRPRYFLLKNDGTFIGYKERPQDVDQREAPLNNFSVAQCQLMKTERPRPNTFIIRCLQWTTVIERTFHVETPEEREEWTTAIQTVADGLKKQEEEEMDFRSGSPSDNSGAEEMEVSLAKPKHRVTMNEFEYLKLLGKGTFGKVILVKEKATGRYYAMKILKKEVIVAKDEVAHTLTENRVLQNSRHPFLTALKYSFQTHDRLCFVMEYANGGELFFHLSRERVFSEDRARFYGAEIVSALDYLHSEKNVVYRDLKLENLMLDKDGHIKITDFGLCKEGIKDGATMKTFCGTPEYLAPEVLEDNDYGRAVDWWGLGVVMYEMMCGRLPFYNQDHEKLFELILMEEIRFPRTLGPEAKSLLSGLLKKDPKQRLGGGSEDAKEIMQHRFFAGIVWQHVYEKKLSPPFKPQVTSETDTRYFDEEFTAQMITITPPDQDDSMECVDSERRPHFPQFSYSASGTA

Platelet-derived growth factor receptor alpha (Homo sapiens), sequence (P16234 whole entry, the tested form may be a part): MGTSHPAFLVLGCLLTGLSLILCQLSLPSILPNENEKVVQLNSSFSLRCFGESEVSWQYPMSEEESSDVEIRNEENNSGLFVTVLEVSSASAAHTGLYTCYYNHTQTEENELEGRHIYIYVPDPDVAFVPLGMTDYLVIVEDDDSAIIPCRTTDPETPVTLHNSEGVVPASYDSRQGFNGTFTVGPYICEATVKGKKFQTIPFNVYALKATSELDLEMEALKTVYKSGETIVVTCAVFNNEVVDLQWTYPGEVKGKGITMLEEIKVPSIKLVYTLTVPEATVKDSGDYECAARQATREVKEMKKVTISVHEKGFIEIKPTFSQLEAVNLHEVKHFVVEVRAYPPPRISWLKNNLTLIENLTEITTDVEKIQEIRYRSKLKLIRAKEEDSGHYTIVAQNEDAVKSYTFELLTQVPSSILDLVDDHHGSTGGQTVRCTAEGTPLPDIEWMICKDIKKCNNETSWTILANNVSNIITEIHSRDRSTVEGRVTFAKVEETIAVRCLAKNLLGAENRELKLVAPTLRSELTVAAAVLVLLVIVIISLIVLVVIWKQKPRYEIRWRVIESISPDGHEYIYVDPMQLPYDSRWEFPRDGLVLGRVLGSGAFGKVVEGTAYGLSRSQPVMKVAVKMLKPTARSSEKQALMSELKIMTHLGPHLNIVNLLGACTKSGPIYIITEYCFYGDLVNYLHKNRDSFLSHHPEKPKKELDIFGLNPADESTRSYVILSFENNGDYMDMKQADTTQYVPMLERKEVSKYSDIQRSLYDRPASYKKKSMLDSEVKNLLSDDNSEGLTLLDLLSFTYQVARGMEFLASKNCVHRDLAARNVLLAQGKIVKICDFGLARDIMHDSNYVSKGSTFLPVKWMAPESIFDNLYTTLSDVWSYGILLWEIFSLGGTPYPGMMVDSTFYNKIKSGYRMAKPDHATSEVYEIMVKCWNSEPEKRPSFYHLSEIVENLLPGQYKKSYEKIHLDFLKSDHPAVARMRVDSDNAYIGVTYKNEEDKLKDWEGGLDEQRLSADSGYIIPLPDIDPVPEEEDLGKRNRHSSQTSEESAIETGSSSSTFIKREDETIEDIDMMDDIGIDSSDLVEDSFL
Ribosomal protein S6 kinase alpha-2 (Homo sapiens), sequence (Q15349 whole entry, the tested form may be a part): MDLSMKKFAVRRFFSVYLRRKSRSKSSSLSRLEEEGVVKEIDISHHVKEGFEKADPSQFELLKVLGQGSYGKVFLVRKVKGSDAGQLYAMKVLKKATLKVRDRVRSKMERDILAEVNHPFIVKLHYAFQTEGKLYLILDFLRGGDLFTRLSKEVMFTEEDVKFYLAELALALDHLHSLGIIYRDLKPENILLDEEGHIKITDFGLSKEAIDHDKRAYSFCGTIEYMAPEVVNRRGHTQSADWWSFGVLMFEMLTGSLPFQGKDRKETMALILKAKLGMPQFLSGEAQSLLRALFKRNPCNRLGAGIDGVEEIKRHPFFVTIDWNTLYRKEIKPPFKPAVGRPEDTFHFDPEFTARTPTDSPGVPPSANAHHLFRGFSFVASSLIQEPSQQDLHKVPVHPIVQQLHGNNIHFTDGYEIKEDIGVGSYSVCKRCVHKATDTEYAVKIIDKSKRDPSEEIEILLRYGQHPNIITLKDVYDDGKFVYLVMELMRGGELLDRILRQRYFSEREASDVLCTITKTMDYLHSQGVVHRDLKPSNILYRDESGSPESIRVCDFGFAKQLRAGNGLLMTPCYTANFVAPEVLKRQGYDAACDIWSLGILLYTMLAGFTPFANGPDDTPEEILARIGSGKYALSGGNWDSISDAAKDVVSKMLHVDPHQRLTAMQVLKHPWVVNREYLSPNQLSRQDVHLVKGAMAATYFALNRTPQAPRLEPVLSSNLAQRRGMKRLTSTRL
Protein kinase C delta type (Homo sapiens), sequence (Q05655 whole entry, looked up, the tested form may be a part): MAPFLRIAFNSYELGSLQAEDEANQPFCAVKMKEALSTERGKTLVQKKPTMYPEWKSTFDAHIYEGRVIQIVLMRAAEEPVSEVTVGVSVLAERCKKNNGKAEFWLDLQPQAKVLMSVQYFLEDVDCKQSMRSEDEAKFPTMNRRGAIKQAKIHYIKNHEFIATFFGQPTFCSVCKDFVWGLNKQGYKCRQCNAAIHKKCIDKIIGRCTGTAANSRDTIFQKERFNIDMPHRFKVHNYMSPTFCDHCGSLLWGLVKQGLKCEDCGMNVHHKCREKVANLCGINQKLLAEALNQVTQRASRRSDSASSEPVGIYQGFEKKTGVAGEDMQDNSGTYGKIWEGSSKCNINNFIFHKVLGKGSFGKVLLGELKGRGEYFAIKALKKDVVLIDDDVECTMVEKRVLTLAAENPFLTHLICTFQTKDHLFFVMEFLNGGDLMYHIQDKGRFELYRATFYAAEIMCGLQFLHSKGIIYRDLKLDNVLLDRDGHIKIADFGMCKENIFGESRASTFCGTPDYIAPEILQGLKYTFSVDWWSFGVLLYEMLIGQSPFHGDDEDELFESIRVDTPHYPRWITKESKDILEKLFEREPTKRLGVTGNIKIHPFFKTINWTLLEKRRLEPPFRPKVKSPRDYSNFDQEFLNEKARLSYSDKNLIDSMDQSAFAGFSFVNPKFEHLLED
Tyrosine-protein kinase Fer (Homo sapiens), sequence (P16591 whole entry, looked up, the tested form may be a part): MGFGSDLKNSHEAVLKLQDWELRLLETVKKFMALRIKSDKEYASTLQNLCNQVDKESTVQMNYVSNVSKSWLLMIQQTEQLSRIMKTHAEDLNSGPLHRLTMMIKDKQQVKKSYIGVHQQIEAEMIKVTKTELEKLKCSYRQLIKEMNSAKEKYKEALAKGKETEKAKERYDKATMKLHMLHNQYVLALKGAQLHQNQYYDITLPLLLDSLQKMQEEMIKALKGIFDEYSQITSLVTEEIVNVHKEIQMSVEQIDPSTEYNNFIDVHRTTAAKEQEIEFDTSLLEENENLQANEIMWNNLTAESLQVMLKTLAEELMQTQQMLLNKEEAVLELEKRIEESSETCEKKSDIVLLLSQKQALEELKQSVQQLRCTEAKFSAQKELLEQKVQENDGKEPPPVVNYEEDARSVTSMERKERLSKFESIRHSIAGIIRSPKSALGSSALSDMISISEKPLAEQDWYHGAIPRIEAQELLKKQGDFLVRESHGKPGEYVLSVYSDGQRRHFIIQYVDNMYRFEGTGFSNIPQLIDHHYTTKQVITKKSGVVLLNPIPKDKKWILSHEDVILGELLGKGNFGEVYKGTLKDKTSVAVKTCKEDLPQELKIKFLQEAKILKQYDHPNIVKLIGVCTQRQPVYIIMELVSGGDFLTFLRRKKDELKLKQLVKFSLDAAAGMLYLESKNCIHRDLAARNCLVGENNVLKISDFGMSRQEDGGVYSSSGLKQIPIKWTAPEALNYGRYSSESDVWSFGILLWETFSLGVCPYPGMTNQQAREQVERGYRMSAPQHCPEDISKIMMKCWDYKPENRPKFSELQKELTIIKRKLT
Mitogen-activated protein kinase 3 (Homo sapiens), sequence (P27361 whole entry, the tested form may be a part): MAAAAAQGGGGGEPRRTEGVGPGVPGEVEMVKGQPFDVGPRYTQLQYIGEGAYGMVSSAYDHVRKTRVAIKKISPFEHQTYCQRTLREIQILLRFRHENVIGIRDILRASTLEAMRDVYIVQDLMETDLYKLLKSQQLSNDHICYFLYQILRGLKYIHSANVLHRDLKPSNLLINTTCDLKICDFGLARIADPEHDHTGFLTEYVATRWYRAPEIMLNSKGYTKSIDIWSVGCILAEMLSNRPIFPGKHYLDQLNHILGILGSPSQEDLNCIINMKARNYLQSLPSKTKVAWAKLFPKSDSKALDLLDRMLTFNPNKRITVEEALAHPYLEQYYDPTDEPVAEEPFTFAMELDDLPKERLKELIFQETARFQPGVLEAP
Protein kinase C theta type (Homo sapiens), sequence (Q04759 whole entry, looked up, the tested form may be a part): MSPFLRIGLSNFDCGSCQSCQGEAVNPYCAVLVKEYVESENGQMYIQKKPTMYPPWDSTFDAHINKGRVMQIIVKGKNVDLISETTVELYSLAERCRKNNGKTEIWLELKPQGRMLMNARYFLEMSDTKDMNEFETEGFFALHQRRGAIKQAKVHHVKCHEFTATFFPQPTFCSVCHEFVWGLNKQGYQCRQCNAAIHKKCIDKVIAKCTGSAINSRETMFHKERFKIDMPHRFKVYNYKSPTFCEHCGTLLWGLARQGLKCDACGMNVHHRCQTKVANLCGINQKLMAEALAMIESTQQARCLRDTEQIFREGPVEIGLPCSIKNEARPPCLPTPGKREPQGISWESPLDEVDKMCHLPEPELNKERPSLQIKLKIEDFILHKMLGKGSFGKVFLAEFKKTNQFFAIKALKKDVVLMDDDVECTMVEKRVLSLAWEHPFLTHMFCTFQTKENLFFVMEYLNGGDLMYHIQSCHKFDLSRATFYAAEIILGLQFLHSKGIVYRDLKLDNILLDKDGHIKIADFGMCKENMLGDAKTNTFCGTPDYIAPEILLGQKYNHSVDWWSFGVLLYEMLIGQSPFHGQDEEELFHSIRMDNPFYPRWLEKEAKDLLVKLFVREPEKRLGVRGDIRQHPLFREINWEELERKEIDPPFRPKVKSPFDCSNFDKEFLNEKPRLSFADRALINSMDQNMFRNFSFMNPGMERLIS

NC1(Cc2ccc(Cl)cc2)CCN(c2ncnc3[nH]ccc23)CC1
inhibition [1]: 13% | inhibition [2]: 4%

c1nc(N2CCOCC2)c2nc[nH]c2n1
inhibition [3]: 98%

Clc1ccc(C2(c3ccc(-c4ncnc5[nH]cnc45)cc3)CCNCC2)cc1
inhibition [4]: 37.5% | inhibition [5]: 0%

C[C@H](CN(C)C)Oc1nc(Nc2cc3cccc(Cl)c3cn2)cnc1C#N
inhibition [6]: 8.5% | inhibition [7]: 4%

CNCc1ccc(-c2ncnc3[nH]cnc23)cc1
inhibition [8]: 69% | inhibition [9]: 81%

NCCc1ccc(-c2ncnc3[nH]cnc23)cc1
inhibition [10]: 72% | inhibition [11]: 59% | inhibition [12]: 37%

NCC1CCN(c2ncnc3[nH]ccc23)CC1
inhibition [13]: 54%

NC1CCN(c2ncnc3[nH]ccc23)CC1
inhibition [14]: 83%
